In patent US9102620B2, “Deuterated N-ethyl-N-phenyl-1,2-dihydro-4-hydroxy-5-chloro-1-methyl-2-oxoquinoline-3-carboxamide, salts and uses thereof” (TEVA PHARMACEUTICAL INDUSTRIES, LTD., priority 2010, dated 2015):
Read-outs that look alike come from different tables or passages of the source.

Assays:
[1] = system: CYP3A4 mRNA; conditions: human, 3 days; for mRNA Percent positive control, CYP3A4: hepatocytes
Experimental: (§1) After treatment, the cells were incubated in situ with marker substrates for the analysis of phenacetin O-dealkylation (marker for CYP1A2) and midazolam 1′-hydroxylation (marker for CYP3A4/5) by LC/MS/MS.
(§2) Approximately 24 hours after the last treatment, hepatocytes were lysed in TRIzol reagent after the in situ marker substrate incubations, and cell lysates were stored at −75±5° C. For human hepatocyte preparation H971, media from six wells per treatment group was aspirated, and approximately 132 μL TRIzol were added to each well. The cell lysates were mixed by repeated pipetting. Total RNA was isolated from the cell lysates using the TRIzol protocol (Invitrogen) and was purified using the RNeasy Mini Kit (Qiagen Inc.) according to SOP L6161.02. RNA quality and concentration were determined by measuring absorbance at 260 and 280 nm on a BioTek Synergy HT plate reader (BioTek Instruments, Inc.) with KC4 Signature software (version 3.4 Rev 21, BioTek Instruments, Inc.) according to SOP L6162.02. The analysis of RNA integrity was carried out with the RNA 6000 Nano Assay Kit on an Agilent 2100 Bioanalyzer (Agilent Technologies, Inc.) according to SOP L6162.02. Single-stranded cDNA was prepared from RNA with the RT Master Mix using the AB 7300 Real Time PCR system thermocycling program or AB 7900HT Fast Real Time PCR System thermocycling program (Applied Biosystems) according to SOP L6160.04. […] The RT Master Mix was added to each RNA sample to complete the components of the reaction. No template controls (NTCs) were included in the analysis. For the NTC reactions, RNase-free water was added in place of the RNA sample. The cDNA prepared samples were stored at −20±5° C. prior to analysis by qRT-PCR.
(§3) Quantitative RT-PCR was carried out according to SOP L6160.04 (XenoTech, LLC) and the Applied Biosystems protocol. Each PCR was performed in triplicate. A Primer Mix was prepared for each Gene Expression assay. A typical Primer Mix contained TaqMan Universal Master Mix (1×), Gene Expression Assay (1×, 900 nM forward and reverse primers) and RNase-free water. The Reaction Mix was prepared by adding the Primer Mix to cDNA. A percentage of samples (no less than 10%) included NACs. […] The relative quantity of the target cDNA compared with that of the control cDNA (GAPDH) was determined by the ΔΔCt method (Applied Biosystems User Bulletin #2). Relative quantification measures the change in mRNA expression in a test sample relative to that in a control sample (e.g., DMSO). This method assumes that the efficiency of the target amplification and the efficiency of the endogenous control amplification are approximately equal.
(§4) For qRT-PCR, data were processed using the Sequence Detection System (SDS) Software version 1.4, for Relative Quantification (Applied Biosystems). This software analyzes relative gene expression using the comparative Ct method (ΔΔCt), which relates the PCR signal of the target transcript to the PCR signal of the target in an untreated control. Both the treated sample and the untreated control signals are normalized to the endogenous control (GAPDH), for which expression is not affected by treatment and expression is constant throughout the tissue being tested. […] Calculations are as follows: ΔCt=Ct(target)−Ct(endogenous control) 1. ΔΔCt=ΔCt(treated sample)−ΔCt(untreated control) 2. Fold change in expression=2−ΔΔCt 3.
(§5) The level of mRNA expression relative to the positive control was calculated as follows: […]

[2] = system: CYP1A2 mRNA; conditions: human, 3 days; for mRNA Percent positive control, CYP1A2: hepatocytes
Experimental: as §1, §2, §3, §4, §5

[3] = system: CYP1A2; conditions: human, 3 days; for Enzyme activity, Phenacetin O-dealkylation (CYP1A2) / Percent positive control, Phenacetin O-dealkylation (CYP1A2) activity: hepatocytes
Experimental: as §1
(§6) Incubations of hepatocytes with probe substrates were conducted in accordance with SOP L5041.02. Approximately 24 hours after the last treatment, spent media was aspirated from the wells, and each well was rinsed two times with pre-warmed (37±2° C.) fresh culture media. Media was aspirated from the wells and reactions were started by addition of 200 μL pre-warmed media containing the probe substrate to each well. […] At 30 minutes, an aliquot (150 μL) of the incubation mixture was removed and added to a well of a 96-well plate containing 300 μL of stop reagent (acetonitrile) and internal standard (Table 2). The mixtures were mixed thoroughly and allowed to sit for at least 15 minutes at 2-8° C. Samples were centrifuged at 2000×g for 10 minutes at 2-8° C., and supernatant fractions were analyzed by LC/MS/MS.
(§7) All analyses were performed with validated LC/MS/MS methods. The procedures used for the analysis of each metabolite followed the applicable LC/MS/MS analytical method SOPs and are summarized in Table 2. The MS equipment was either an ABI Sciex (Applied Biosystems/MDS SCIEX) API 4000 or API 3000 instrument with Shimadzu HPLC pumps and autosampler systems.
(§8) Individual rates of reaction from like treatment groups were averaged, and for those groups with n≧3, standard deviations were determined. Fold increases were determined by dividing the enzymatic rate for each treatment group by that of the vehicle control. Percent positive control was calculated with the following equation: […]

[4] = system: CYP3A4/5; conditions: human, 3 days; for Enzyme activity, Midazolam 1′-hydroxylation (CYP3A4/5) / Percent positive control, Midazolam 1′-hydroxylation (CYP3A4/5) activity: hepatocytes
Experimental: as §1, §6, §7, §8

CCN(C(=O)c1c(O)c2c(Cl)cccc2n(C)c1=O)c1ccccc1 [Laquinimod, N-ethyl-N-phenyl-1,2-dihydro-4-hydroxy-5-chloro-1-methyl-2-oxoquinoline-3-carboxamide]
mRNA Fold increase, CYP3A4 ([1]; 0.01 μM): 0.621 fold | mRNA Fold increase, CYP3A4 ([1]; 0.05 μM): 0.347 fold | mRNA Fold increase, CYP3A4 ([1]; 0.1 μM): 0.427 fold | mRNA Fold increase, CYP3A4 ([1]; 1 μM): 0.286 fold | mRNA Fold increase, CYP3A4 ([1]; 10 μM): 0.636 fold | mRNA Percent positive control, CYP3A4 ([1]; 0.01 μM): −10.4% | mRNA Percent positive control, CYP3A4 ([1]; 0.05 μM): −18.0% | mRNA Percent positive control, CYP3A4 ([1]; 0.1 μM): −15.8% | mRNA Percent positive control, CYP3A4 ([1]; 1 μM): −19.7% | mRNA Percent positive control, CYP3A4 ([1]; 10 μM): −10.0% | mRNA Fold increase, CYP1A2 ([2]; 0.01 μM): 4.22 fold | mRNA Fold increase, CYP1A2 ([2]; 0.05 μM): 7.90 fold | mRNA Fold increase, CYP1A2 ([2]; 0.1 μM): 9.50 fold | mRNA Fold increase, CYP1A2 ([2]; 1 μM): 16.8 fold | mRNA Fold increase, CYP1A2 ([2]; 10 μM): 20.5 fold | mRNA Percent positive control, CYP1A2 ([2]; 0.01 μM): 42.5% | mRNA Percent positive control, CYP1A2 ([2]; 0.05 μM): 91.1% | mRNA Percent positive control, CYP1A2 ([2]; 0.1 μM): 112% | mRNA Percent positive control, CYP1A2 ([2]; 1 μM): 209% | mRNA Percent positive control, CYP1A2 ([2]; 10 μM): 257% | Fold Increase, Phenacetin O-dealkylation (CYP1A2) activity ([3]; 0.01 μM): 8.43 fold | Fold Increase, Phenacetin O-dealkylation (CYP1A2) activity ([3]; 0.05 μM): 18.06 fold | Fold Increase, Phenacetin O-dealkylation (CYP1A2) activity ([3]; 0.1 μM): 21.75 fold | Fold Increase, Phenacetin O-dealkylation (CYP1A2) activity ([3]; 1 μM): 43.79 fold | Fold Increase, Phenacetin O-dealkylation (CYP1A2) activity ([3]; 10 μM): 61.02 fold | Enzyme activity, Phenacetin O-dealkylation (CYP1A2) ([3]; 0.01 μM): 25.2 ± 0.8 pmol/mg protein/min | Percent positive control, Phenacetin O-dealkylation (CYP1A2) activity ([3]; 0.01 μM): 27.1% | Enzyme activity, Phenacetin O-dealkylation (CYP1A2) ([3]; 0.05 μM): 54.0 ± 4.5 pmol/mg protein/min | Percent positive control, Phenacetin O-dealkylation (CYP1A2) activity ([3]; 0.05 μM): 62.3% | Enzyme activity, Phenacetin O-dealkylation (CYP1A2) ([3]; 0.1 μM): 65.1 ± 1.9 pmol/mg protein/min | Percent positive control, Phenacetin O-dealkylation (CYP1A2) activity ([3]; 0.1 μM): 75.8% | Enzyme activity, Phenacetin O-dealkylation (CYP1A2) ([3]; 1 μM): 131 ± 12 pmol/mg protein/min | Percent positive control, Phenacetin O-dealkylation (CYP1A2) activity ([3]; 1 μM): 156% | Enzyme activity, Phenacetin O-dealkylation (CYP1A2) ([3]; 10 μM): 183 ± 7 pmol/mg protein/min | Percent positive control, Phenacetin O-dealkylation (CYP1A2) activity ([3]; 10 μM): 219% | Fold Increase, Midazolam 1′-hydroxylation (CYP3A4/5) activity ([4]; 0.01 μM): 0.92 fold | Fold Increase, Midazolam 1′-hydroxylation (CYP3A4/5) activity ([4]; 0.05 μM): 0.82 fold | Fold Increase, Midazolam 1′-hydroxylation (CYP3A4/5) activity ([4]; 0.1 μM): 0.78 fold | Fold Increase, Midazolam 1′-hydroxylation (CYP3A4/5) activity ([4]; 1 μM): 0.54 fold | Fold Increase, Midazolam 1′-hydroxylation (CYP3A4/5) activity ([4]; 10 μM): 0.49 fold | Enzyme activity, Midazolam 1′-hydroxylation (CYP3A4/5) ([4]; 0.01 μM): 0.180 ± 0.023 pmol/mg protein/min | Percent positive control, Midazolam 1′-hydroxylation (CYP3A4/5) activity ([4]; 0.01 μM): −2.04% | Enzyme activity, Midazolam 1′-hydroxylation (CYP3A4/5) ([4]; 0.05 μM): 0.161 ± 0.013 pmol/mg protein/min | Percent positive control, Midazolam 1′-hydroxylation (CYP3A4/5) activity ([4]; 0.05 μM): −4.63% | Enzyme activity, Midazolam 1′-hydroxylation (CYP3A4/5) ([4]; 0.1 μM): 0.151 ± 0.002 pmol/mg protein/min | Percent positive control, Midazolam 1′-hydroxylation (CYP3A4/5) activity ([4]; 0.1 μM): −5.89% | Enzyme activity, Midazolam 1′-hydroxylation (CYP3A4/5) ([4]; 1 μM): 0.106 ± 0.004 pmol/mg protein/min | Percent positive control, Midazolam 1′-hydroxylation (CYP3A4/5) activity ([4]; 1 μM): −12.0% | Enzyme activity, Midazolam 1′-hydroxylation (CYP3A4/5) ([4]; 10 μM): 0.0957 ± 0.0067 pmol/mg protein/min | Percent positive control, Midazolam 1′-hydroxylation (CYP3A4/5) activity ([4]; 10 μM): −13.4%
